Data from US8293751B2, “1,2,3-trisubstituted aryl and heteroaryl derivatives as modulators of metabolism and the prophylaxis and treatment of disorders related thereto such as diabetes and hyperglycemia” (Arena Pharmaceuticals, Inc., priority 2003, dated 2012).
Entries after “also recorded” stand apart in the source; their conditions may differ.

Columns and labels:
[1] = system: db mice (C57BL/KsOlahsd-Leprdb, diabetic); assay: Acute response of db mice to RUP3 agonist (blood glucose); type: in vivo; conditions: male db mice; 60 mg/kg, oral gavage; FIG. 5B
Experimental: B. […] Male db mice (C57BL/KsOlahsd-Leprdb, diabetic, Harlan) at age of 10 weeks were randomly grouped (n=6) to receive vehicle (oral gavage), Compound B70 (60 mg/kg, oral gavage), or Ex-4 (1 μg/kg, intraperitoneally). After compound administration, food was removed and blood glucose levels were determined at indicated times as shown in FIG. 5B. Reduction in blood glucose at each time point was expressed as percentage of original glucose levels, averaged from six animals for each group.

C57bl/6N mice = assay: Oral glucose tolerance test (oGTT) in mice; type: in vivo; conditions: male C57bl/6N mice fasted 18 hours; p.o. 30 min before oral dextrose 5 g/kg; FIG. 5A
Experimental: A. Oral Glucose Tolerance Test (oGTT) (FIG. 5A).
Male C57bl/6N mice at age of 8 weeks were fasted for 18 hours and randomly grouped (n=11) to receive a RUP3 agonist (Compound B70) at indicated doses, or with control extendin-4 (ex-4, 1 μg/kg), a GLP-1 peptide analog known to stimulate glucose-dependent insulin secretion. Compound B70 was delivered orally via a gavage needle (p.o. volume at 100 μl). Control Ex-4 was delivered intraperitoneally. Thirty minutes after administration of test compound and control ex4, mice were administered orally with dextrose at 5 g/kg dose. Levels of blood glucose were determined at the indicated time points using Glucometer Elite XL (Bayer).

RUP3 = target: T1, RUP3 (Homo sapiens, UniProt Q8TDV5); assay: 96-Well Cyclic AMP Membrane Assay for RUP3 (Membrane Cyclase Assay); type: biochemical; conditions: RUP3 membranes, cAMP Flashplate
T1 construct: seen in the listing only (N); seen in the listing only (C); expressed in transfected cells
T1 sequence (Q8TDV5 with tags, fused parts or gaps): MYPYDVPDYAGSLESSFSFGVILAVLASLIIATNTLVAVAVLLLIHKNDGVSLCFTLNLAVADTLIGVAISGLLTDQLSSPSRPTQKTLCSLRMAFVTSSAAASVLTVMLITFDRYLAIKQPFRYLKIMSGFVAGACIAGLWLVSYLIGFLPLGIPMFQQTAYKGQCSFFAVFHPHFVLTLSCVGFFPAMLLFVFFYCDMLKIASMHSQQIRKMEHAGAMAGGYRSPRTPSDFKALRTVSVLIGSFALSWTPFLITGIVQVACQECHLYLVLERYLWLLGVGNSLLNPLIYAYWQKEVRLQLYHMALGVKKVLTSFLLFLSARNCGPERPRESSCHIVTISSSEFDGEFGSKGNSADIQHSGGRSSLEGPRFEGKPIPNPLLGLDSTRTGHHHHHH
Experimental: 96-Well Cyclic AMP Membrane Assay for RUP3
Binding Buffer—filter through […] Nalgene filter and keep in refrigerator. All buffers and membranes should be kept cold (in ice bucket) while performing assay. • 20 mM Hepes, pH7.4 • 1 mM MgCl2 • 100 mM NaCl • 2× Regeneration Buffer (make in binding buffer): • 20 mM Phosphocreatine (1.02 gm/200 ml binding buffer) • 20 units Creatine phosphokinase (4 mg/200 ml) • 20 uM GTP (make up 10.46 mg/ml in binding buffer and add 200 ul/200 ml) • 0.2 mM ATP (22.04 mg/200 ml) • […] IBMX (44.4 mg IBMX dissolved in 1 ml 100% DMSO first and then add the entire amount to 200 ml of buffer).
Regeneration buffer can be aliquotted into 40-45 ml portions (in 50 ml sterile tubes) and kept frozen for up to 2 months. Simply put the tube in a beaker with room temperature water to thaw out the regeneration buffer on the day of the assay. […]
IC50s or EC50s are done in triplicate. […] The membranes are kept in ice all the time, and a polytron (Brinkmann polytron, model #PT-3100) is used (setting 6-7, for 15-20 seconds) to obtain a homogeneous membrane suspension.) Protein concentration is determined by Bradford protein assay kit using instructions given in the kit, using the standard supplied with the kit as a reference. […]

## O=[N+]([O-])c1c(Nc2ccc(-n3cncn3)cc2)ncnc1N1CCC(Sc2ccccn2)CC1 [Compound B70, {5-Nitro-6-[4-(pyridin-2-ylsulfanyl)-piperidin-1-yl]-pyrimidin-4-yl}-(4-[1,2,4]triazol-1-yl-phenyl)-amine]
[1]
  blood glucose levels compared to vehicle control: significantly reduces glucose levels compared to vehicle control
C57bl/6N mice
  blood glucose after glucose challenge (oGTT): lowered blood glucose in a dose-dependent manner; also recorded: in a dose-dependent manner on the lowering of blood glucose after glucose challenge
RUP3
  IC50: 129 nM
